Experimental data from patent publication US6476007B2, “Isoform specific inhibition for treatment of pain and reduction of anesthetic threshold” (The Johns Hopkins University, priority 1999, dated 2002).
Where a name gives a salt, the structure may show the parent alone. Read-outs that look alike come from different tables or passages of the source.

Legend:
[1] = Subjective observation of animal behavior after intrathecal administration; conditions: period of 2 h, compared with control animals
tail-flick latency = test: Radiant heat tail-flick test, agents given alone intrathecally; assay type: in vivo, rat; conditions: for maximal decrease in the tail-flick latency: compared to saline-treated group
[2] = system: NMDA-produced facilitation of the tail flick reflex; conditions: pretreatment, spinal cord; Meller et al., 1992a; cited from earlier work
[3] = system: mechanical allodynia induced by capsaicin; conditions: Sluka and Willis (1997); cited from earlier work
[4] = system: PKGIα expression in the spinal cord; test: Western blot of PKGIα in lumbar enlargement segments 96 h after formalin injection; assay type: in vivo, rat; conditions: 96 h formalin-treated rats, not significant (p>0.05)
Description: Thirty five rats were sacrificed by decapitation at 0 h (normal control), 24 h, 48 h and 96 h after injection of saline (100 μl) or formalin (100 μl, 4%) into a hind paw. Lumbar enlargement segments of the spinal cord were dissected, quickly frozen in liquid nitrogen and stored at −80° C. for later use. Frozen tissues were homogenized in the homogenization buffer (50 mM Tris-HCl, 0.1 mM EDTA, 0.1mM EGTA, 1 mM phenylmethylsulfonyl fluoride, 1 μM leupeptin, 2 μM pepstatin A, 0.1% 2-mercaptoethanol). The crude homogenate was centrifuged at 4° C. for 15 min at 3,000×g. The supernatants (100 μg) were heated for 5 min at 90° C. and then loaded onto 4% stacking/7.5% separating SDS-polyacrylamide gels. The proteins were electrophoretically transferred onto nitrocellulose membrane and blocked with 2% non-fat dry milk and subsequently incubated for 1 h with polyclonal rabbit anti-PKGIα antibody (1:500) and with monoclonal mouse anti-endothelium NOS (eNOS) antibody (1:500) (Transduction Labs). Normal lung was used as a positive control. Specific proteins were detected using horseradish peroxidase-conjugated anti-rabbit or anti-mouse secondary antibody and visualized using chemiluminescence reagents provided with the ECL kit (Amersham Life Sciences Inc, II) and exposure to film. The intensity of blots was quantified with densitometry (Personal Densitometer/IMAGEQUANT; Molecular Dynamics).
In some experiments, rats were injected intraperitoneally (i.p.) with an NMDA receptor antagonist, MK-801 (RBI, MA), a selective neuronal NOS inhibitor (nNOS), 7-Nitroindazole (7-NI, Alexis Biochemicals, CA) and a selective sGC inhibitor, 1H-[1,2,4]oxadiazolo[4,3-a]quinoxalin-1-one (ODQ, Alexis Biochemicals, CA), each day for 4 days (96 h). The doses of MK-801, 7-NI and ODQ used in the present study were determined regarding to the previous studies (29-31). The experiments were divided into five groups. Group 1 (n=4) as control: i.p. injection of saline (0.9%, 2 ml) or peanut oil (2 ml) 30 min prior to the subcutaneous injection of saline (0.9%, 100 μl). […]

[5] = system: NMDA-induced facilitation of the tail-flick reflex; test: NMDA-induced facilitation of the tail-flick reflex; assay type: in vivo, rat
[6] = system: formalin-induced c-fos expression in the spinal cord; conditions: for number of Fos-positive neurons in laminae I-II, III-IV and V-VI: vs water pretreated rats; for mean reduction in number of fos-positive neurons per section: vs control group, p<0.05
Description: For Fos immunohistochemistry, rats were perfused one hour after the behavioral test was done as described below. The lumbar spinal cord was removed and cut into 30 μm transverse sections. Sections were processed following the above-mentioned procedures except that the primary antibody was substituted with polyclonal rabbit anti-Fos antibody (1:4,000, Santa Cruz Biotechnology, Inc., CA).
(§1) The drug was dissolved in distilled water before administration. The animals were randomly assigned into four groups as follows: distilled water (control) (n=12); 10 μg of Rp-8-p-CPT-cGMPS (n=6); 20 μg of Rp-8-p-CPT-cGMPS (n=6); 30 μg of Rp-8-p-CPTc-GMPS (n=6). The drug solution was injected intrathecally in a volume of 10 μl, followed by an injection of 10 μl of distilled water to flush the catheter. Fifteen minutes later, formalin (100 μl, 4%) was injected into a hind paw of the rat. In addition, four rats were alone treated intrathecally with Rp-8-p-CPT-cGMPS (30 μg) and another four rats were normal without any treatment.

[7] = system: NOC-12-induced decrease in the tail-flick latency; conditions: for effect on NOC-12-induced decrease in the tail-flick latency: tested 30 and 60 min, p<0.01
Description: Rats were anesthetized by intraperitoneal injection of pentobarbital sodium (45 mg/kg). Chronic intrathecal catheters were inserted by passing a polyethylene-10 (PE-10) catheter through an incision in the atlanto-occipital membrane to a position 8 cm caudal to the cistema at the level of the lumbar subarachinoid space. The animals were allowed to recover for a week before experiments were initiated. Rats showing neurologic deficits post-operatively were removed from the study.
Nociception was evaluated by the radiant heat tail-flick test with no anesthesia. Each rat was placed in an Animal Holder (IITC Life Science, CA, USA), 690 cm^3 in capacity with rubber stoppers in both ends with a rostral inlet and a caudal outlet. The tail of the rat protruded through the caudal hole. The tail-flick apparatus (Model 33B Tail Flick Analgesy Meter, IITC Life Science, CA, USA) generated a beam of radiant heat which was focused on the underside of the tail, 5 cm from the tip. […] Nociception was assessed by the prolongation of the time required to induce tail-flick after applying radiant heat to the skin of the tail. The latency of reflexive removal of the tail from the heat was measured automatically to the nearest 0.01 s. Tail-flick latency was measured six times and the basal latency was defined as the mean of the last five times. The tail-flick data are expressed as percentage change calculated by the formula: (trial latency—baseline latency)/(baseline latency)×100%.
The drug solution was injected intrathecally in a volume of 10 μl, followed by an injection of 10 μl of saline to flush the catheter.

[8] = system: formalin-induced pain behavior; conditions: for reduction of the number of flinches and shakes evoked by formalin: 30 μg intrathecal
Description: The rats were implanted with an intrathecal catheter under pentobarbital anesthesia. A polyethylene (PE-10) tube was inserted into the subarachnoid space at the rostral level of the spinal cord lumbar enlargement through an incision at the atlanto-occipital membrane according to the method of Yaksh and Rudy (27). The animals were allowed to recover for 7 to 10 days before being used experimentally. Rats showing neurological deficits postoperatively were discarded.
as §1
Immediately following the formalin injection, each individual rat was placed in a transparent cage for observation of the formalin-injected paw. The pain-related behaviors, flinches and shakes, were assessed for the next 60 min by an experimenter who was unaware of the group assignment. The observational session was divided into two periods: a phasic period (0-10 min) and a tonic period (10-60 min). The mean number of flinches and shakes for each period of each treatment group was determined

[9] = 100 mg/kg i.p. in peanut oil each day for 4 days

With `CCNCCN(CC)N(O)N=O` [NOC-12, N-ethyl-2-(1-ethyl-2-hydroxy-2-nitrosohydrazino)ethanamine] the “changes in animal behavior on subjective observation” value (“changes in animal behavior” for short) [1] was “no obvious changes in animal behavior”, the “maximal decrease in the tail-flick latency” value (shortened to “maximal decrease”) (tail-flick latency; 10 μg intrathecal) was 5.4% and the “maximal decrease” value (tail-flick latency; 20 μg intrathecal, p<0.01) was 18.5%. The “maximal decrease” value (tail-flick latency; 30 μg intrathecal, p<0.01) was 24.9%, the “tail flick latency after maximal reduction” value (tail-flick latency; 30 μg intrathecal, baseline 6.53±0.28 seconds) was 4.65 ± 0.32 s and the “hyperalgesia 120 min after intrathecal injection” value (tail-flick latency; 120 min after intrathecal injection) was “no longer observed”. For the same compound, the “time of maximum effect on tail-flick latency” value (tail-flick latency; intrathecal, decrease seen from 15 to 90 min) was 60 min.

For `CN(C)c1ccc2nc3ccc(=[N+](C)C)cc-3sc2c1` [methylene blue], the “effect on NMDA-produced facilitation of the tail flick reflex” value [2] is listed as “completely abolished”.

For `CN[C@H](CC(=O)O)C(=O)O` [NMDA, N-methyl-D-aspartate], the “changes in animal behavior” value [1] was “caudally directed biting and scratching behaviors” and the “tail-flick latency after intrathecal administration” value (tail-flick latency; intrathecal NMDA, baseline 6.58±0.57 seconds, p<0.01) was 4.88 ± 0.41 s.

In the case of `COC(=O)[C@@]1(OC)C[C@H]2O[C@]1(C)n1c3ccccc3c3c4c(c5c6ccccc6n2c5c31)C(=O)N(C)C4` [KT5823], the “effect on mechanical allodynia induced by capsaicin” value [3] is listed as “reversed”.

With `C[C@]12N[C@H](Cc3ccccc31)c1ccccc12` [MK-801, dizocilpine maleate] the “PKGIα protein level relative to group 1 (saline-injected control)” value ([4]; 2 mg/kg i.p. each day for 4 days) was 1.13 fold and the “effect on NMDA-produced facilitation of the tail-flick reflex” value ([5]; prior intrathecal treatment, p<0.01) was “completely abolished”.

In the case of `O=c1onc2cnc3ccccc3n12` [ODQ, 1H-[1,2,4]oxadiazolo[4,3-a]quinoxalin-1-one], the “PKGIα protein level relative to group 1 (saline-injected control)” value [4, 9] was 1.14 fold.

With `CCN(CC)CC.Nc1nc2c(nc(Sc3ccc(Cl)cc3)n2[C@@H]2O[C@@H]3COP(O)(=S)O[C@H]3[C@H]2O)c(=O)[nH]1` (stereo partly drawn) [Rp-8-p-CPT-cGMPS, Rp-8-[(4-Chlorophenyl)thio]-cGMPS triethylamine] the “number of Fos-positive neurons in laminae I-II, III-IV and V-VI” value ([6]; 20 μg intrathecal) was “significantly decreased”, the “mean reduction in number of fos-positive neurons per section” value (from here on “mean reduction in number … per section”) ([6]; 30 μg intrathecal, neck of dorsal horn) was 51% and the “mean reduction in number … per section” value ([6]; 30 μg intrathecal, nucleus proprius) was 30%. The “mean reduction in number … per section” value ([6]; 30 μg intrathecal, superficial laminae) was 29%, the “number of Fos-positive neurons in laminae I-II, III-IV and V-VI” value ([6]; 30 μg intrathecal) was “significantly decreased” and the “number of Fos-positive neurons in laminae VII-X” value ([6]; intrathecal 10, 20 and 30 μg, vs water) was “no significant reduction”. The “Fos-positive neurons in the spinal cord” value ([6]; treatment with the agent only (30 μg intrathecal), no formalin) was “no Fos-positive neurons”, the “effect on the hyperalgesia induced by NOC-12” value ([7]; 7.5 μg intrathecal, 30 μg NOC-12, p>0.05) was “did not influence” and the “effect on NOC-12-induced decrease in the tail-flick latency” value ([7]; 15 μg intrathecal 10 min prior to 30 μg NOC-12) was “significantly blocked”. For the same compound, the “effect on NOC-12-induced decrease in the tail-flick latency” value ([7]; 30 μg intrathecal 10 min prior to 30 μg NOC-12) was “significantly blocked”, the “effect on the formalin response” value ([8]; 10 μg intrathecal, phasic or tonic period) was “did not influence” and the “effect on the formalin-induced behavior” value ([8]; 20 μg intrathecal, phasic period) was “no effect”. For the same compound, the “suppression of the formalin-induced behavior” value ([8]; 20 μg intrathecal, tonic period, p<0.01) was 25%, the “reduction of the number of flinches and shakes evoked by formalin” value ([8]; phasic period (0-10 min), p<0.01) was 64% and the “reduction of the number of flinches and shakes evoked by formalin” value ([8]; tonic period (10-60 min), p<0.01) was 66%. For the same compound, the “changes in animal behavior” value [1] was “no obvious changes in animal behavior”, the “effect on the NMDA-evoked facilitation of the tail-flick reflex” value ([5]; 7.5 μg intrathecal, p>0.05) was “failed to produce significant effect” and the “suppression of the NMDA-induced decrease of the tail-flick latency” value ([5]; 15 μg intrathecal prior administration, p<0.01) was 13.3%. The “suppression of the NMDA-induced decrease of the tail-flick latency” value ([5]; 30 μg intrathecal prior administration, p<0.01) was 20.7% and the “effect on the baseline tail-flick latency” value (tail-flick latency; 7.5, 15 and 30 μg given alone, 15 to 120 min after administration, p>0.05) was “no significant effect”.

In the case of `O=[N+]([O-])c1cccc2cn[nH]c12` [7-NI, 7-Nitroindazole], the “PKGIα protein level relative to group 1 (saline-injected control)” value [4, 9] was 1.17 fold.

For `COC(=O)[C@@H](N)CCCNC(=N)N[N+](=O)[O-]` [N^G-nitro-L-arginine methyl ester], the “effect on NMDA-produced facilitation of the tail flick reflex” value [2] is given as “completely abolished”.
